Assay results published in PubChem BioAssay (NCI).
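Briefly, cells in 96-well plates were exposed to five compound concentrations for 48 h, and endpoints were estimated by linear interpolation. TGI marks complete inhibition of growth.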

Assays:
Assay in all cases: growth of human tumour cells (NCI), 48 h
[1] = tested on: DMS 114 small cell lung
[2] = tested on: EKVX NSCLC
[3] = tested on: OVCAR-3 ovarian
[4] = tested on: KM12 colon
[5] = tested on: UACC-257 melanoma
[6] = tested on: HCC-2998 colon
[7] = tested on: U251 CNS
[8] = tested on: LOX IMVI melanoma
[9] = tested on: M14 melanoma
[10] = tested on: SK-MEL-2 melanoma
[11] = tested on: NCI-H460 lung
[12] = tested on: A498 renal
[13] = tested on: OVCAR-5 ovarian
[14] = tested on: HCT-116 colon
[15] = tested on: TK-10 renal
[16] = tested on: 786-0 renal
[17] = tested on: SNB-19 CNS
[18] = tested on: CAKI-1 renal
[19] = tested on: CCRF-CEM leukemia
[20] = tested on: SK-OV-3 ovarian
[21] = tested on: A549 NSCLC
[22] = tested on: HOP-62 NSCLC
[23] = tested on: UACC-62 melanoma
[24] = tested on: SF-295 CNS
[25] = tested on: UO-31 renal
[26] = tested on: DLD-1 colon
[27] = tested on: SF-539 CNS
[28] = tested on: SK-MEL-28 melanoma
[29] = tested on: MALME-3M melanoma
[30] = tested on: SK-MEL-5 melanoma
[31] = tested on: RXF-631 renal
[32] = tested on: NCI-H226 lung
[33] = tested on: HCT-15 colon
[34] = tested on: HT29 colon
[35] = tested on: XF 498 CNS
[36] = tested on: SF-268 CNS
[37] = tested on: NCI-H23 lung
[38] = tested on: MOLT-4 leukemia
[39] = tested on: COLO 205 colon
[40] = tested on: NCI-H522 lung
[41] = tested on: SNB-78 CNS
[42] = tested on: K-562 leukemia
[43] = tested on: HL-60(TB) leukemia
[44] = tested on: SW-620 colon
[45] = tested on: SNB-75 CNS
[46] = tested on: KM20L2 colon
[47] = tested on: LXFL 529 NSCLC
[48] = tested on: DMS 273 small cell lung
[49] = tested on: ACHN renal
[50] = tested on: RXF 393 renal
[51] = tested on: HOP-18 NSCLC
[52] = tested on: IGROV1 ovarian
[53] = tested on: RPMI-8226 leukemia
[54] = tested on: HOP-92 NSCLC
[55] = tested on: SN12C renal
[56] = tested on: OVCAR-8 ovarian
[57] = tested on: M19-MEL melanoma
[58] = tested on: OVCAR-4 ovarian
[59] = tested on: SR leukemia
[60] = tested on: DU-145 prostate

## Cc1ccccc1NC(=O)C(=O)C(C#N)c1ccc(Cl)cc1 (stereo unspecified)
[1]
  TGI: > 100 µM
[2]
  TGI: > 100 µM
[3]
  TGI: > 100 µM
[4]
  TGI: > 100 µM
[5]
  TGI: > 100 µM
[6]
  TGI: 75.9 µM
[7]
  TGI: > 100 µM
[8]
  TGI: 31 µM
[9]
  TGI: > 100 µM
[10]
  TGI: > 100 µM
[11]
  TGI: 56 µM
[12]
  TGI: > 100 µM
[13]
  TGI: > 100 µM
[14]
  TGI: > 100 µM
[15]
  TGI: > 100 µM
[16]
  TGI: > 100 µM
[17]
  TGI: > 100 µM
[18]
  TGI: > 100 µM
[19]
  TGI: > 100 µM
[20]
  TGI: > 100 µM
[21]
  TGI: > 100 µM
[22]
  TGI: > 100 µM
[23]
  TGI: > 100 µM
[24]
  TGI: > 100 µM
[25]
  TGI: > 100 µM
[26]
  TGI: > 100 µM
[27]
  TGI: 83.5 µM
[28]
  TGI: > 100 µM
[29]
  TGI: > 100 µM
[30]
  TGI: > 100 µM
[31]
  TGI: > 100 µM
[32]
  TGI: > 100 µM
[33]
  TGI: 37.1 µM
[34]
  TGI: > 100 µM
[35]
  TGI: > 100 µM
[36]
  TGI: > 100 µM
[37]
  TGI: > 100 µM
[38]
  TGI: > 100 µM
[39]
  TGI: > 100 µM
[40]
  TGI: > 100 µM
[41]
  TGI: > 100 µM
[42]
  TGI: > 100 µM
[43]
  TGI: > 100 µM
[44]
  TGI: 31.2 µM
[45]
  TGI: > 100 µM
[46]
  TGI: > 100 µM
[47]
  TGI: > 100 µM
[48]
  TGI: > 100 µM
[49]
  TGI: > 100 µM
[50]
  TGI: > 100 µM
[51]
  TGI: > 100 µM
[52]
  TGI: > 100 µM
[53]
  TGI: 48.8 µM
[54]
  TGI: > 100 µM
[55]
  TGI: > 100 µM
[56]
  TGI: > 100 µM

## C=C(CN(C)C)C(=O)c1ccccc1C
[57]
  TGI: 53.5 µM
[1]
  TGI: 42.5 µM
[2]
  TGI: > 100 µM
[3]
  TGI: > 58.7 µM
[4]
  TGI: > 100 µM
[5]
  TGI: > 100 µM
[58]
  TGI: > 100 µM
[6]
  TGI: > 100 µM
[7]
  TGI: > 100 µM
[8]
  TGI: > 100 µM
[9]
  TGI: 33.8 µM
[10]
  TGI: > 100 µM
[11]
  TGI: > 100 µM
[12]
  TGI: > 100 µM
[13]
  TGI: > 100 µM
[14]
  TGI: > 57.1 µM
[15]
  TGI: > 100 µM
[16]
  TGI: 35.8 µM
[59]
  TGI: 47.2 µM
[17]
  TGI: > 100 µM
[18]
  TGI: 62.6 µM
[19]
  TGI: 34.2 µM
[20]
  TGI: > 100 µM
[21]
  TGI: > 100 µM
[60]
  TGI: > 100 µM
[22]
  TGI: > 100 µM
[23]
  TGI: > 62.3 µM
[24]
  TGI: > 100 µM
[25]
  TGI: > 69.2 µM
[26]
  TGI: 45.8 µM
[27]
  TGI: > 60.8 µM
[28]
  TGI: 62.4 µM
[29]
  TGI: 36 µM
[30]
  TGI: > 100 µM
[31]
  TGI: > 100 µM
[32]
  TGI: > 100 µM
[33]
  TGI: > 63.1 µM
[34]
  TGI: > 100 µM
[35]
  TGI: > 75.6 µM
[36]
  TGI: > 100 µM
[37]
  TGI: > 100 µM
[38]
  TGI: 35.7 µM
[39]
  TGI: 31.9 µM
[40]
  TGI: 12.3 µM
[41]
  TGI: > 100 µM
[42]
  TGI: 45.9 µM
[43]
  TGI: 15.9 µM
[44]
  TGI: 33.1 µM
[45]
  TGI: > 100 µM
[46]
  TGI: > 100 µM
[47]
  TGI: 30.7 µM
[48]
  TGI: 75.8 µM
[49]
  TGI: 57.6 µM
[50]
  TGI: 17.6 µM
[51]
  TGI: > 52.4 µM
[52]
  TGI: > 100 µM
[53]
  TGI: 48.6 µM
[54]
  TGI: 33.3 µM
[55]
  TGI: > 78.1 µM
[56]
  TGI: > 100 µM
